Patent publication US9713613B2, “Methods and compositions for the treatment of cancer and related hyperproliferative disorders” (priority 2007, dated 2017)

Test system: DU145 cells
Test: Oligonucleotide microarray analysis (Affymetrix) of treated DU145 cells
Type: cell-based, human
Design: dose or concentration left out as unconfirmed
Conditions: DU145, 6 hrs
Procedure: Gene expression profile comparison of the drug-treated and untreated cells might reveal specific molecular pathways affected by fatostatin A. DU145 cells were treated with fatostatin A or DMSO alone, and extracted mRNA samples were analyzed by Affimetrix DNA microarrays mapping 33,000 genes (Table 1).
DU145 prostate cancer cells were treated with […] of fatostatin A or DMSO alone in the presence of 1 μg/mL of IGF1 for 6 hrs in a serum free medium, total RNA was extracted in a TRI reagent (Molecular Research Center) and further isolated by RNeasy Mini Kit (Qiagen). Purified mRNA was analyzed in Baylor College of Medicine Microarray Core Facility by Affymetrix Human Genome U133 Plus 2.0 Array consisting of almost 45,000 probe sets representing more than 39,000 transcripts derived from approximately 33,000 well-substantiated human genes (Affymetrix, Inc.).
As described herein, fatostatin inhibits the insulin-induced adipogenesis of 3T3-L1 cells and the serum-independent growth of DU145 cells (Choi et al., 2003). Gene expression profiles of drug-treated and untreated cells were compared to gain information about specific molecular pathways affected by fatostatin. DU145 cells were treated with fatostatin or DMSO alone, and the extracted mRNA samples were analyzed by Affymetrix DNA microarrays mapping 33,000 genes. Of those genes (all of which are available at the National Center for Biotechnology Information's GenBank database on the world wide web), transcription levels of 63 genes decreased at least 35% in response to fatostatin treatment (Table 5). Thirty-four of the affected genes were directly associated with fat or sterol synthesis, such as genes encoding biosynthetic enzymes, and 18 of the affected genes have been reported to be controlled by SREBPs (Horton et al., 2003). Downregulation of the affected SREBP-responsive genes was confirmed by RT-PCR experiments.
Oligonucleotide microarray analysis. DU145 prostate cancer cells were treated with […] of fatostatin or DMSO alone in the presence of 1 μg/mL of IGF1 for 6 hrs in a serum free medium, total RNA was extracted in a TRI reagent (Molecular Research Center) and further isolated by RNeasy Mini Kit (Qiagen). Purified mRNA was analyzed in Baylor College of Medicine Microarray Core Facility by Affymetrix Human Genome U133 Plus 2.0 Array consisting of almost 45,000 probe sets representing more than 39,000 transcripts derived from approximately 33,000 well-substantiated human genes (Affymetrix, Inc.).

CCCc1cc(-c2nc(-c3ccc(C)cc3)cs2)ccn1 [Compound 1, 2-propyl-4-(4-p-tolylthiazol-2-yl)pyridine]
transcription level (fold), famesyl-diphosphate farnesyltransferase (:AA872727): 0.5359
transcription level (fold), mevalonate (diphospho) decarboxylase (A1189359): 0.3299
transcription level (fold), stearoyl-CoA desaturase (delta-9-desaturase) (AB032261): 0.5743
transcription level (fold), Homo sapiens putative sterol reductanse SR-1 (TM7SF2) (AF096304): 0.6156
transcription level (fold), squalene epoxidase (AF098865): 0.5
Decreased fold, Homo sapiens androgen-regulated short-chain dehydrogenaseneductase 1 (AF167438): 0.6598
transcription level (fold), Homo sapiens androgen-regulated short-chain dehydrogenasereductase 1 (ARSDR1) (AF167438): 0.6598
transcription level (fold), Cullin 4B (AI670819): 0.7071
transcription level (fold), low density lipoprotein receptor (familial hypercholesterolemia) (AI861942): 0.5743
transcription level (fold), ATP citrate lyase (AI971281): 0.5743
Decreased fold, acetyl-CoA synthetase (AK000162): 0.5359
transcription level (fold), acetyl-CoA synthetase (AK000162): 0.5359
transcription level (fold), malic enzyme 1, NADP(+)-dependent, cytosolic (AL049699): 0.7071
transcription level (fold), 3-hydroxy-3-methylglutaryl-Coenzyme A reductase (AL518627): 0.5
transcription level (fold), human glucose transporter pseudogene (AL565516): 0.7071
transcription level (fold), Tubulin, beta 4 (AL565749): 0.6598
transcription level (fold), tubulin, alpha 1 (testis specific) (AL575074): 0.4665
transcription level (fold), cytochrome P450, subfamily I (dioxin-inducible), polypeptide 1 (AU144855): 0.5
transcription level (fold), lanosterol synthase (2,3-oxidosqualene-lanosterol cyclase) (AW084510): 0.5743
transcription level (fold), cytochrome b5 outer mitochondrial membrane precursor (AW235051): 0.5743
transcription level (fold), acetyl-Coenzyme A carboxylase alpha (B3855983): 0.5743
transcription level (fold), NAD(P) dependent steroid dehydrogenase-like; H105e3 (BC000245): 0.4665
transcription level (fold), acetyl-Coenzyme A acetyltransferase 2 (acetoacetyl Coenzyme A thiolase) (BC000408): 0.5743
Decreased fold, acetyl-Coenzyme A acetyltransferase 2 (BC000408.1): 0.5743
transcription level (fold), Homo sapiens, similar to tubulin, beta4 (BC002654): 0.6598
transcription level (fold), isopentenyl-diphosphate delta isomerase (BC005247): 0.4665
transcription level (fold), Homo sapiens, tubulin, beta5 (BC005838): 0.6598
transcription level (fold), insulin induced gene 1 (BE300521): 0.3299
transcription level (fold), dihydrolipoamide S-acetyltransferase (BF978872): 0.6598
transcription level (fold), DNAJ (Hsp40) homolog, subfamily B, member 4 (BG252490): 0.7071
Decreased fold, lanosterol synthase (D63807.1): 0.6156
transcription level (fold), lanosterol synthase (2,3-oxidosqualene-lanosterol cyclase) (D63807.1): 0.6156
transcription level (fold), lipin 1 (D80010.1): 0.5
Decreased fold, sterol-05-desaturase (D85181.1): 0.5
transcription level (fold), sterol-C5-desaturase (fungal ERG3, delta-5-desaturase)-like (D85181.1): 0.5
transcription level (fold), Fatty-acid-Coenzyme A ligase, long-chain 3 (D89053.1): 0.7071
transcription level (fold), prostaglandin E2 receptor (L32662.1): 0.5
Decreased fold, 3-hydroxy-3-methylglutaryl-Coenzyme A reductase (HMG CoA R) (NM000859.1): 0.5
Decreased fold, 3-hydroxy-3-methylglutaryl-Coenzyme A synthase 1 (HMG CoA S) (NM 0002130.1): 0.3536
Decreased fold, mevalonate decarboxylase (MVD) (NM002461.1): 0.3299
Decreased fold, squalene epoxidase (NM 003129.2): 0.5
Decreased fold, Insulin induced gene 1 (INSIG1) (NM 005542.1): 0.3299
Decreased fold, fatty acid desaturase 1 (NM005931.1): 0.6598
Decreased fold, emopamil-bindingprotein (sterol isomerase) (NM006579.1): 0.6156
Decreased fold, dihydrolipoamide S-acetyltransferase (NM0019312): 0.6598
transcription level (fold), cytochrome P450, subfamily I (dioxin-inducible), polypeptide 1 (NM_00010): 0.3299
transcription level (fold), mevalonate kinase (mevalonic aciduria) (NM_00043): 0.5
transcription level (fold), nuclear receptor subfamily O, group B, member 1 (NM_00047): 0.5359
transcription level (fold), low density lipoprotein receptor (familial hypercholesterolemia) (NM_00052): 0.6156
transcription level (fold), cytochrome P450, 51 (lanosterol 14-alpha-demthylase) (NM_00078): 0.5359
transcription level (fold), 3-hydroxy-3-methylglutaryl-Coenzyme A reductase (NM_00085): 0.4665
transcription level (fold), ATP citrate lyase (NM_00109): 0.7071
transcription level (fold), dehydrocholesterol reductase (NM_00136): 0.5743
transcription level (fold), fibroblast growth factor 2 (basic) (NM_00200, Hs.284244): 0.5
transcription level (fold), farnesyl diphosphate synthase (NM_00200, Hs.77393): 0.6598
transcription level (fold), 3-hydroxy-3-methylglutaryl-Coenzyme a synthase 1 (soluble) (NM_00213): 0.3536
transcription level (fold), meningioma (disrupted in balanced translocation) 1 (NM_00243): 0.6156
transcription level (fold), Homo sapiens periplakin (PPL) (NM_00270): 0.6156
transcription level (fold), H2B histone family, member Q (NM_00352): 0.5
transcription level (fold), basic heliz-loop-helix domain containing, class B, 2 (NM_00367): 0.5743
transcription level (fold), tumor necrosis factor (ligand) superfamily, member9 (NM_00381): 0.5743
Decreased fold, mevalonate kinase (MVK) (NM_000431.1): 0.5
Decreased fold, low density lipoprotein receptor (LDLR) (NM_000527.2): 0.5743
transcription level (fold), UDP-N-acetylglucosamine-2-epimerase-N-acetrylmannosamine kinase (NM_00547): 0.5743
transcription level (fold), Isocitrate dehydrogenase 1 (NADP+), soluble (NM_00589): 0.7071
transcription level (fold), fatty acid desaturase 1 (NM_00593): 0.6598
transcription level (fold), lipase, endothelial (NM_00603): 0.5359
transcription level (fold), IGF-II mRNA-binding protein 3 (NM_00654): 0.4665
transcription level (fold), emopamil-binding protein (sterol isomerase) (NM_00657): 0.6156
transcription level (fold), serum-inducible kinase (NM_00662): 0.5743
Decreased fold, acetyl-Coenzyme A carboxylase alpha (NM_000664.1): 0.5743
Decreased fold, ATP citrate lyase (NM_001096.1): 0.5743
transcription level (fold), hydroxysteroid (17-beta) dehydrogenase 7 (NM_01637): 0.4665
Decreased fold, farnesyl pyrophosphate syntlietase (NM_002004.1): 0.6598
Decreased fold, fatty-acid-Coenzyme A ligase long chain 3 (NM_004457.2): 0.7071
Decreased fold, famesyl-diphosphate famesyltransferase 1 (NM_004462.1): 0.5359
Decreased fold, stearoyl-CoA desaturase (SCD) (NM_005063.1): 0.5743
transcription level (fold), seladin-1 (NM_014676): 0.6598
Decreased fold, hydroxysteroid (17-beta) dehydrogenase 7 (NM_016371.1): 0.4665
Decreased fold, fatty-acid-Coenzyme A ligase long chain 4 (NM_022977.1): 0.7071
transcription level (fold), low density lipoprotein receptor (familial hypercholesterolemia) (S70123.1): 0.7071
transcription level (fold), ATP citrate lyase (U18197.1): 0.5743
transcription level (fold), cytochrome P450, 51 (lanosterol 14-alpha-demethylase) (U40053): 0.4665
transcription level (fold), pinin, desmosome associated protein (U59479.1): 0.5359
